These results are taken from patent US12410123B2, “N-[8-(2-hydroxybenzoyl)amino]potassium octanoate crystal polymorph, and preparation method therefor and use thereof” (SCIWIND BIOSCIENCES CO., LTD., priority 2020, dated 2025).

Common to all, as to assay type: physicochemical
Data set [1] in a line: Solution stability of different crystal forms of PNAC in aqueous solution (500 mg/mL). The note with it: 500 mg/mL in purified water. How it is done: The stability differences between different salt forms and different crystal forms in aqueous solution under the condition of high concentration (500 mg/mL) were compared, and the results are shown in Table 5 (there is no difference in the dissolution and solution storage process of the samples of PNAC crystal forms I-IV).

Data set [2] is described as follows: Stability during preparation (grinding, tableting, airflow crushing; XRPD). The source says: Three groups of solid samples were characterized by XRPD to evaluate their physical stability.
Data set [3] can be described thus: Solid-state stability of PNAC crystal forms (storage; XRPD and HPLC). How it is done:
The third group was kept under the conditions of 25° C. and 60% relative humidity for 2 weeks to obtain a solid sample, and then the three groups of solid samples were respectively evaluated for physical and chemical stability by XRPD and HPLC assay.
The purity of main peak was calculated by normalization method.

[4] abbreviates: Airflow crushing (injection pressure 0.4 MPa, pulverization pressure 0.2 MPa).
Setting [5] is: solid, 60° C. for 24 h, 40° C. and 75% relative humidity for two weeks, 25° C. and 60% relative humidity for 2 weeks.

With `O=C([O-])CCCCCCCNC(=O)c1ccccc1O.[Na+]` [SNAC, monosodium N-[8-(2-hydroxybenzoyl)amino]octanoate], the “storage time at which flocs began to appear in the solution” value in data set [1] (4° C.) amounted to 0.5 h; in data set [1] (room temperature) it was 1 h.

Regarding `O=C([O-])CCCCCCCNC(=O)c1ccccc1O.[K+]` [crystal Form I, Potassium N-[8-(2-hydroxybenzoyl)amino]octanoate], the “change of crystal form after grinding, tableting and airflow crushing (XRPD)” value in data set [2] is reported as “does not change”. Moreover, the “crystal form after treatment (XRPD)” value in data set [2] (setting [4]) was “crystal Form I”; in data set [2] (Manual grinding (10 min)), “crystal Form I”; in data set [2] (Tableting (pressure of 3 kN)) it was “crystal Form I”; in data set [3] (25° C./60% RH, 2 W), “crystal Form II”; in data set [3] (25° C./75% RH, 2 W), “crystal Form II”; in data set [3] (60° C., 24 h), “crystal Form I”. Moreover, the “overall solid-state stability (conclusion from Table 15)” value in data set [3] is “very stable”.

`O=C([O-])CCCCCCCNC(=O)c1ccccc1O.[K+]` [crystal Form II, Potassium N-[8-(2-hydroxybenzoyl)amino]octanoate]: the “change of crystal form after grinding, tableting and airflow crushing (XRPD)” value in data set [2] is “does not change”. Further, the “crystal form after treatment (XRPD)” value in data set [2] (setting [4]) is on record as “crystal Form II”; in data set [2] (Manual grinding (10 min)), “crystal Form II”; in data set [2] (Tableting (pressure of 3 kN)), “crystal Form II”; in data set [3] (25° C./60% RH, 2 W), “crystal Form II”; in data set [3] (25° C./75% RH, 2 W) it was “crystal Form II”; in data set [3] (60° C., 24 h) it was “crystal Form II”. Besides, in data set [3], the “overall solid-state stability (conclusion from Table 15)” value is “very stable”. Besides, the “crystal form after storage (XRPD)” value in data set [3] (setting [5]) was “the crystal form has not changed”. In data set [3] (setting [5]), the “relative purity (HPLC) after storage” value turned out to be 100%.

As for `O=C([O-])CCCCCCCNC(=O)c1ccccc1O.[K+]` [crystal Form III, Potassium N-[8-(2-hydroxybenzoyl)amino]octanoate], the “crystal form after treatment (XRPD)” value in data set [3] (25° C./60% RH, 2 W) is “crystal Form II”; in data set [3] (25° C./75% RH, 2 W), “crystal Form II”; in data set [3] (60° C., 24 h) it was “crystal Form I”.

On to `O=C([O-])CCCCCCCNC(=O)c1ccccc1O.[K+]` [crystal Form IV, Potassium N-[8-(2-hydroxybenzoyl)amino]octanoate], for which the “crystal form after treatment (XRPD)” value in data set [2] (setting [4]) is listed as “crystal Form IV”; in data set [2] (Manual grinding (10 min)), “crystal Form IV”; in data set [2] (Tableting (pressure of 3 kN)) it was “crystal Form IV”; in data set [3] (25° C./60% RH, 2 W) it was “crystal Form II”; in data set [3] (25° C./75% RH, 2 W), “crystal Form II”; in data set [3] (60° C., 24 h), “crystal Form I”.
